From patent publication US9777005B2 (Takeda Pharmaceutical Company Limited, priority 2012, dated 2017)
Structures can show the parent of a compound that is named as a salt.

Molecular target: T1, human M1 receptor (hCHRM1) (Homo sapiens, UniProt P11229)
T1 construct: expressed in transfected cells; host or cells: CHO-K1
T1 sequence (P11229 1-460): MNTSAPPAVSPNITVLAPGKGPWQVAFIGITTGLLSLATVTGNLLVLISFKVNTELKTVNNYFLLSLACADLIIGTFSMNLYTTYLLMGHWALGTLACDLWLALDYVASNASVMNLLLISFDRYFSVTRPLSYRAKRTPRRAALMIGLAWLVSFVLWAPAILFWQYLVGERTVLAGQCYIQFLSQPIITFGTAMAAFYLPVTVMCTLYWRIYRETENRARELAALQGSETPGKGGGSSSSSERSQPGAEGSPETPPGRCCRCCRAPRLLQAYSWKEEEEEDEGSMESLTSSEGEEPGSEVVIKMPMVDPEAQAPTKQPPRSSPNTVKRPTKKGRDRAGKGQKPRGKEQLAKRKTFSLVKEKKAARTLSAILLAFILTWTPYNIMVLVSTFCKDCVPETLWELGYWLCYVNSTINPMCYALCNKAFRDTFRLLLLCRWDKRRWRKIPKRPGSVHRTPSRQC
Assay: Measurement of M1 receptor positive allosteric modulator (M1PAM) activity, calcium fluorescence (FLIPRtetra) in CHO-K1 cells in the presence of acetylcholine at EC20
Type: cell-based
Conditions: in the presence of acetylcholine at EC20 (final 0.6 nM), CHO-K1 cells expressing hCHRM1; for EC50: inflection point of M1PAM activity, read-out: IP value; for activity (%) at 10 μM: test compound 10 μM
Procedure, shortened: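 PAM activity was measured as calcium flux by FLIPRtetra over 1 min after co-addition of compound and EC20 acetylcholine (final 0.6 nM) to Fluo-4-loaded hCHRM1 CHO-K1 cells. The response was scaled between DMSO (0%) and 1 μM acetylcholine (100%), and the inflection point of the concentration curve gives the IP value.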

Structure (SMILES)	EC50 [nM]	activity (%) at 10 μM [%]	activity (%) at 10 μM (hydrochloride) [%]
NC(=O)c1ccc(CN2Cc3cccc(O[C@H]4CCCC[C@@H]4O)c3C2=O)cc1 (relative stereo) [Example 34, 4-((7-((trans-2-hydroxycyclohexyl)oxy)-1-oxo-1,3-dihydro-2H-isoindol-2-yl)methyl)benzamide]	10	92	
Cn1cc(-c2cccc(CN3Cc4cccc(O[C@H]5CCCC[C@@H]5O)c4C3=O)c2)cn1 (relative stereo) [Example 39, 7-((trans-2-hydroxycyclohexyl)oxy)-2-(3-(1-methyl-1H-pyrazol-4-yl)benzyl)isoindolin-1-one]	58	97	
Cn1cc(-c2ccc(CN3Cc4cccc(O[C@H]5CCC(F)(F)C[C@@H]5O)c4C3=O)cc2)cn1 (relative stereo) [Example 2, 7-((trans-4,4-difluoro-2-hydroxycyclohexyl)oxy)-2-(4-(1-methyl-1H-pyrazol-4-yl)benzyl)isoindolin-1-one]	8.7	105	
O=C(NCC1CCCO1)c1ccc(CN2Cc3cccc(OCC4CCCO4)c3C2=O)cc1 (stereo not drawn) [Example 38, 4-((1-oxo-7-((tetrahydrofuran-2-yl)methoxy)-1,3-dihydro-2H-isoindol-2-yl)methyl)-N-((tetrahydrofuran-2-yl)methyl)benzamide]	44	118	
CNC(=O)c1ccc(CN2Cc3ccnc(Oc4ccc(C)cc4F)c3C2=O)cc1F [Example 437, 2-fluoro-4-((4-(2-fluoro-4-methylphenoxy)-3-oxo-1,3-dihydro-2H-pyrrolo[3,4-c]pyridin-2-yl)methyl)-N-methylbenzamide]	78	98	
O=C1c2c(cccc2Oc2c(F)cccc2Cl)CN1Cc1ccc(-c2ccnnc2)cc1 [Example 81, 7-(2-chloro-6-fluorophenoxy)-2-(4-(pyridazin-4-yl)benzyl)isoindolin-1-one]	170	57	
O=C1c2c(ncnc2Oc2ccc(C(F)(F)F)cc2F)CN1Cc1ccc(-c2ccnnc2)cc1 [Example 313, 4-(2-fluoro-4-(trifluoromethyl)phenoxy)-6-(4-(pyridazin-4-yl)benzyl)-6,7-dihydro-5H-pyrrolo[3,4-d]pyrimidin-5-one]	27	89	
Cn1ccc(-c2cc(F)c(CN3Cc4ccnc(O[C@H]5CCC[C@@H]5O)c4C3=O)c(F)c2)n1 (relative stereo) [Example 328, 2-(2,6-difluoro-4-(1-methyl-1H-pyrazol-3-yl)benzyl)-4-((trans-2-hydroxycyclopentyl)oxy)-1,2-dihydro-3H-pyrrolo[3,4-c]pyridin-3-one]	6.4	97	
Cn1cc(-c2ccc(CN3Cc4ccnc(Oc5ccc(OC(F)(F)F)cc5C#N)c4C3=O)cc2)cn1 [Example 363, 2-((2-(4-(1-methyl-1H-pyrazol-4-yl)benzyl)-3-oxo-2,3-dihydro-1H-pyrrolo[3,4-c]pyridin-4-yl)oxy)-5-(trifluoromethoxy)benzonitrile]	6.6	94	
Cn1ccc(-c2ccc(CN3Cc4ncnc(Oc5ccc(C#N)cc5F)c4C3=O)cc2)n1 [Example 371, 3-fluoro-4-((6-(4-(1-methyl-1H-pyrazol-3-yl)benzyl)-5-oxo-6,7-dihydro-5H-pyrrolo[3,4-d]pyrimidin-4-yl)oxy)benzonitrile]	13	99	
Cc1cc(-c2ccc(CN3Cc4ccnc(Oc5ccc(C(C)(C)F)cc5F)c4C3=O)cc2)cnn1 [Example 410, 4-(2-fluoro-4-(2-fluoropropan-2-yl)phenoxy)-2-(4-(6-methylpyridazin-4-yl)benzyl)-1,2-dihydro-3H-pyrrolo[3,4-c]pyridin-3-one]	19	99	
Cc1nn(C)cc1-c1ccc(CN2Cc3cccc(OCC45CCC(CC4)O5)c3C2=O)cc1 [Example 354, 2-(4-(1,3-dimethyl-1H-pyrazol-4-yl)benzyl)-7-((7-oxabicyclo[2.2.1]hept-1-yl)methoxy)isoindolin-1-one]	270	93	
Cn1cc(-c2ccc(CN3Cc4cccc(Oc5c(F)cccc5C#N)c4C3=O)cn2)cn1 [Example 65, 3-fluoro-2-((2-((6-(1-methyl-1H-pyrazol-4-yl)pyridin-3-yl)methyl)-3-oxo-2,3-dihydro-1H-isoindol-4-yl)oxy)benzonitrile]	63	76	
Cl.N#Cc1cccc(F)c1Oc1cccc2c1C(=O)N(Cc1ccc(-c3ccn[nH]3)cc1)C2 [Example 42, 3-fluoro-2-((3-oxo-2-(4-(1H-pyrazol-5-yl)benzyl)-2,3-dihydro-1H-isoindol-4-yl)oxy)benzonitrile hydrochloride]	85	107	
Cn1cc(-c2ccc(CN3Cc4cccc(OCCn5cccn5)c4C3=O)cc2)cn1 [Example 19, 2-(4-(1-methyl-1H-pyrazol-4-yl)benzyl)-7-(2-(H-pyrazol-1-yl)ethoxy)isoindolin-1-one]	110	91	
Cc1cc(-c2ccc(CN3Cc4cccc(OCC5CCCO5)c4C3=O)cc2)cnn1 (stereo not drawn) [Example 356, 2-(4-(6-methylpyridazin-4-yl)benzyl)-7-((tetrahydrofuran-2-yl)methoxy)isoindolin-1-one]	49	101	
Cn1cc(-c2ccc(CN3Cc4cccc(Oc5c(F)cccc5C#N)c4C3=O)cc2)cn1 [Example 6, 3-fluoro-2-((2-(4-(1-methyl-1H-pyrazol-4-yl)benzyl)-3-oxo-2,3-dihydro-1H-isoindol-4-yl)oxy)benzonitrile]	31	90	
Cc1nn(C)cc1-c1ccc(CN2Cc3ccnc(Oc4c(F)cccc4Cl)c3C2=O)c(F)c1 [Example 280, 4-(2-chloro-6-fluorophenoxy)-2-(4-(1,3-dimethyl-1H-pyrazol-4-yl)-2-fluorobenzyl)-1,2-dihydro-3H-pyrrolo[3,4-c]pyridin-3-one]	26	110	
Cn1cc(-c2ccc(CN3Cc4ccnc(OCC5CC5)c4C3=O)c(F)c2)nn1 [Example 331, 4-(cyclopropylmethoxy)-2-(2-fluoro-4-(1-methyl-TH-1,2,3-triazol-4-yl)benzyl)-1,2-dihydro-3H-pyrrolo[3,4-c]pyridin-3-one]	16	104	
Cn1cc(-c2ccc(CN3Cc4ccnc(OC5CCC5)c4C3=O)c(F)c2)nn1 [Example 338, 4-(cyclobutyloxy)-2-(2-fluoro-4-(1-methyl-1H-1,2,3-triazol-4-yl)benzyl)-1,2-dihydro-3H-pyrrolo[3,4-c]pyridin-3-one]	19	98	
O=C1c2c(ccnc2OCC2CCCO2)CN1Cc1ccc(Br)cc1 (stereo not drawn) [Example 284, 2-(4-bromobenzyl)-4-((tetrahydrofuran-2-yl)methoxy)-1,2-dihydro-3H-pyrrolo[3,4-c]pyridin-3-one]	340	94	
CCC(O)COc1nccc2c1C(=O)N(Cc1ccc(-c3cn(C)nc3C)cc1)C2 (single isomer, unassigned) [Example 276, 2-(4-(1,3-dimethyl-1H-pyrazol-4-yl)benzyl)-4-(2-hydroxybutoxy)-1,2-dihydro-3H-pyrrolo[3,4-c]pyridin-3-one]	3.6	99	
Cn1cc(-c2ccc(CN3Cc4ccnc(Oc5ccc(C(O)C(F)(F)F)cc5F)c4C3=O)cc2)cn1 (stereo not drawn) [Example 393, 4-(2-fluoro-4-(2,2,2-trifluoro-1-hydroxyethyl)phenoxy)-2-(4-(1-methyl-1H-pyrazol-4-yl)benzyl)-1,2-dihydro-3H-pyrrolo[3,4-c]pyridin-3-one]	5	89	
Cc1cc(-c2ccc(CN3Cc4ccnc(Oc5ccc(Cl)cc5F)c4C3=O)cc2)ccn1 [Example 383, 4-(4-chloro-2-fluorophenoxy)-2-(4-(2-methylpyridin-4-yl)benzyl)-1,2-dihydro-3H-pyrrolo[3,4-c]pyridin-3-one]	48	86	
Cc1cc(-c2ccc(CN3Cc4ccnc(O[C@@H]5CCC[C@H]5O)c4C3=O)cc2)ccn1 (single isomer, unassigned) [Example 258, 4-((trans-2-hydroxycyclopentyl)oxy)-2-(4-(2-methylpyridin-4-yl)benzyl)-1,2-dihydro-3H-pyrrolo[3,4-c]pyridin-3-one hydrochloride]	5.7		107
O=C1c2c(OCC3CCCO3)ccnc2CN1Cc1ccc(-n2cccn2)cc1 (stereo not drawn) [Example 60, 6-(4-(1H-pyrazol-1-yl)benzyl)-4-((tetrahydrofuran-2-yl)methoxy)-6,7-dihydro-5H-pyrrolo[3,4-b]pyridin-5-one]	320	115	
CCc1ccc(Oc2nccc3c2C(=O)N(Cc2ccc(C(=O)NC)nc2)C3)c(F)c1 [Example 453, 5-((4-(4-ethyl-2-fluorophenoxy)-3-oxo-1,3-dihydro-2H-pyrrolo[3,4-c]pyridin-2-yl)methyl)-N-methylpyridine-2-carboxamide]	56	97	
